Common to all, as to format: cell-based
One assay relates to Klebsiella aerogenes A. The experiment in a line: Antibacterial activity (MIC) against Klebsiella aerogenes A.
The test system of a further assay is P mirabilis C977. Kind of assay: Antibacterial activity (MIC) against P mirabilis C977.
For the next assay, the system named is Staph. aureus Oxford. The experiment in a line: Antibacterial activity (MIC) against Staph. aureus Oxford. The conditions noted are these: Staphylococcus aureus.
Another assay concerns E Coli JT 425. Kind of assay: Antibacterial activity (MIC) against E Coli JT 425.
The subject of the next assay is Ps aeruginosa 10662. The experiment in a line: Antibacterial activity (MIC) against Ps aeruginosa 10662.
Setting [1] is: Klebsiella Aerogenes A, table, read-out: Antibacterial activities (MIC).
Where [2] appears, read: Proteus mirabilis, P. Mirabilis C977, table, read-out: Antibacterial activities (MIC).
Where [3] appears, read: Staph Aureus Oxford, table, read-out: Antibacterial activities (MIC).
Setting [4] is: Escherichia coli, E. Coli JT 425, table, read-out: Antibacterial activities (MIC).
The mark [5] stands for this setting: Pseudomonas aeruginosa, Ps. Aeruginosa 10662, table, read-out: Antibacterial activities (MIC).
Where [6] appears, read: Klebsiella aerogenes A, example, read-out: Antibacterial activity (MIC).
Where [7] appears, read: P mirabilis C977, example, read-out: Antibacterial activity (MIC).
[8] abbreviates: Staph. aureus Oxford, example, read-out: Antibacterial activity (MIC).
[9] abbreviates: Ps aeruginosa 10662, example, read-out: Antibacterial activity (MIC).

Here are results for eight compounds from patent publication EP0091755A1, “Penicillin derivatives, a process for their preparation and compositions containing them” (BEECHAM GROUP PLC, priority 1982, dated 1983).

Read-outs that look alike come from different tables or passages of the source.

Usually MIC stands for the least concentration at which growth counts as inhibited.

On to `CO[C@@]1(NC(=O)C(NC(=O)Nc2cnc(Nc3ccc(S(N)(=O)=O)cc3)nc2O)c2ccco2)C(=O)N2[C@@H](C(=O)O)C(C)(C)S[C@@H]21` (stereo partly drawn) [Example 6, Sodium 6,β-[D,L-2-[3-[2-(4-aminosulphonylphenylamino), -4-hydroxypyrimidin-5-yl]-ureido]-2-(furan-2-yl)acetamido]-6,a-methoxy penicillanate], for which the MIC stood at 0.12 µg/mL with Klebsiella aerogenes A (setting [1]); 2 µg/mL in the assay on P mirabilis C977 (setting [2]); 16 µg/mL in the assay on Staph. aureus Oxford (setting [3]); 8 µg/mL in the assay on E Coli JT 425 (setting [4]); 32 µg/mL in the assay with Ps aeruginosa 10662 (setting [5]).

Turning to `CO[C@@]1(NC(=O)[C@@H](NC(=O)Nc2cnc(Nc3ccc(S(N)(=O)=O)cc3)nc2O)c2cccs2)C(=O)N2[C@@H](C(=O)O)C(C)(C)S[C@@H]21` [Example 5, Sodium 6,β-[L-2-[3-[2-(4 aminosulphonylphenylamino)-4-hydroxy-pyrimidin-5-yl]ureido]-2-thien-2-y-)acetamido]-6α methoxypenicillanate], the MIC in the assay with Klebsiella aerogenes A (setting [1]) was determined as 1 µg/mL; in the assay with P mirabilis C977 (setting [2]), 2.5 µg/mL; in the assay with Staph. aureus Oxford (setting [3]), 25 µg/mL; in the assay with E Coli JT 425 (setting [4]), 2.5 µg/mL; with Ps aeruginosa 10662 (setting [5]), 50 µg/mL.

As to `CO[C@@]1(NC(=O)[C@H](NC(=O)Nc2cnc(Nc3ccc(S(N)(=O)=O)cc3)nc2O)c2ccccc2)C(=O)N2[C@@H](C(=O)O)C(C)(C)S[C@@H]21` [Example 1, Sodium 6,β-(D-2-[3-[2-(4-aminosulphonylphenylamino)-4-hydroxypyrimidin-5-yl]ureido]-2-phenylacetamido] -6,a-methoxypenicillanate], the MIC in the assay with Klebsiella aerogenes A (setting [6]) was 2.5 µg/mL; with P mirabilis C977 (setting [7]), 2.5 µg/mL; in the assay with Staph. aureus Oxford (setting [8]) it was 10 µg/mL; in the assay with Ps aeruginosa 10662 (setting [9]), 50 µg/mL.

Turning to `CO[C@@]1(NC(=O)[C@H](NC(=O)Nc2cnc(Nc3ccc(S(N)(=O)=O)cc3)nc2O)c2cccs2)C(=O)N2[C@@H](C(=O)O)C(C)(C)S[C@@H]21` [Example 4, Sodium 6β-[D-2-[3-[2-(4-aminosulphonylphenylamino)-4-hydroxypyrimidin-5-yl]ureido]-2-(thien-2-yl)acetamido]-6,a-methoxypenicillanate.], the MIC in the assay with Klebsiella aerogenes A (setting [1]) was 0.2 µg/mL; in the assay with P mirabilis C977 (setting [2]), 1 µg/mL; with Staph. aureus Oxford (setting [3]), 10 µg/mL; in the assay on E Coli JT 425 (setting [4]), 1 µg/mL; with Ps aeruginosa 10662 (setting [5]), 10 µg/mL.

As to `CO[C@@]1(NC(=O)C(NC(=O)Nc2cnc(Nc3ccc(S(N)(=O)=O)cc3)nc2O)c2ccccc2F)C(=O)N2[C@@H](C(=O)O)C(C)(C)S[C@@H]21` (stereo partly drawn) [Example 7, Sodium 6,B-[D,L-2-[3-[2-(4-aminosulphonylphenylamino) -4-hydroxypyrimidin-5-yl]ureido]-2-(2-fluorophenyl)acetamido]-6,a-methoxypenicillanate], the MIC was found to be 0.25 µg/mL in the assay on Klebsiella aerogenes A (setting [1]); 1 µg/mL in the assay on P mirabilis C977 (setting [2]); 16 µg/mL in the assay with Staph. aureus Oxford (setting [3]); 1 µg/mL in the assay on E Coli JT 425 (setting [4]); 16 µg/mL in the assay with Ps aeruginosa 10662 (setting [5]).

As for `CO[C@@]1(NC(=O)C(NC(=O)Nc2cnc(Nc3ccc(S(N)(=O)=O)cc3)nc2O)c2ccc(F)cc2)C(=O)N2[C@@H](C(=O)O)C(C)(C)S[C@@H]21` (stereo partly drawn) [Example 8, Sodium 6,B-[D,L-2-[3-[2-(4-aminosulphonylphenylamino)-4-hydroxy-pyrimidin-5-yl]ureido]-2-(4-fluorophenyl)-acetamido]-6,a-methoxypenicillanic.], the MIC in the assay on Klebsiella aerogenes A (setting [1]) was determined as 8 µg/mL; in the assay on P mirabilis C977 (setting [2]), 8 µg/mL; in the assay on Staph. aureus Oxford (setting [3]), 64 µg/mL; in the assay with E Coli JT 425 (setting [4]) it was 16 µg/mL; with Ps aeruginosa 10662 (setting [5]), 128 µg/mL.

Turning to `CO[C@@]1(NC(=O)C(NC(=O)Nc2cnc(Nc3ccc(S(N)(=O)=O)cc3)nc2O)c2ccc(OC(C)=O)c(OC(C)=O)c2)C(=O)N2[C@@H](C(=O)O)C(C)(C)S[C@@H]21` (stereo partly drawn) [Example 9, Sodium 6,B-[D,L-2-[3-[2-(4-aminosulphonylphenylamino)-4-hydroxypyrimidin-5-yl]ureido]-2-(3,4-diacetoxyphenyl)acetamido]-6,a-methoxypenicillanate], the MIC is below 0.06 µg/mL in the assay with Klebsiella aerogenes A (setting [1]); 2 µg/mL with P mirabilis C977 (setting [2]); below 128 µg/mL with Staph. aureus Oxford (setting [3]); 1 µg/mL in the assay on E Coli JT 425 (setting [4]); 1 µg/mL with Ps aeruginosa 10662 (setting [5]).

For the compound `CO[C@@]1(NC(=O)[C@H](NC(=O)Nc2cnc(Nc3ccc(S(N)(=O)=O)cc3)nc2O)c2ccc(O)cc2)C(=O)N2[C@@H](C(=O)O)C(C)(C)S[C@@H]21` [Example 3, Sodium 6,β-[D-2-[3-[2-(4-aminosulphonylphenylamino)-4-hydroxypyrimidin-5-yl]ureido]-2-(4-hydroxyphenyl)acetamido]-6,a-methoxypenicillanate], the MIC in the assay with Klebsiella aerogenes A (setting [6]) stood at 0.2 µg/mL; with P mirabilis C977 (setting [7]) it was 1.25 µg/mL; in the assay on Staph. aureus Oxford (setting [8]), 50 µg/mL; in the assay with E Coli JT 425 (E Coli JT 425, example, read-out: Antibacterial activity (MIC)) it was 2.5 µg/mL; with Ps aeruginosa 10662 (setting [9]), 25 µg/mL.
